In patent US20120010205A1, “NOVEL QUINOLINE ESTERS USEFUL FOR TREATING SKIN DISORDERS” (Wyeth LLC, priority 2010, published 2012) one finds EC50 and IC50 data, which are given here for 22 compounds.

For experiment [1], the system named is ABCG1. Nature of the experiment: Gene regulation by LXR: ABCG1, KERTr (serum-free). The class given is cell-based.
The test system of experiment [2] is ABCG1. As to the kind of experiment: Gene regulation by LXR: ABCG1, human foreskin fibroblasts (serum-free). The class given is cell-based. The following applies: Fibroblast.
In experiment [3] the target is T1, human LXRβ (Homo sapiens, UniProt P55055).
T1 construct: made in house; host or cells: E. coli
T1 sequence (P55055 1-460): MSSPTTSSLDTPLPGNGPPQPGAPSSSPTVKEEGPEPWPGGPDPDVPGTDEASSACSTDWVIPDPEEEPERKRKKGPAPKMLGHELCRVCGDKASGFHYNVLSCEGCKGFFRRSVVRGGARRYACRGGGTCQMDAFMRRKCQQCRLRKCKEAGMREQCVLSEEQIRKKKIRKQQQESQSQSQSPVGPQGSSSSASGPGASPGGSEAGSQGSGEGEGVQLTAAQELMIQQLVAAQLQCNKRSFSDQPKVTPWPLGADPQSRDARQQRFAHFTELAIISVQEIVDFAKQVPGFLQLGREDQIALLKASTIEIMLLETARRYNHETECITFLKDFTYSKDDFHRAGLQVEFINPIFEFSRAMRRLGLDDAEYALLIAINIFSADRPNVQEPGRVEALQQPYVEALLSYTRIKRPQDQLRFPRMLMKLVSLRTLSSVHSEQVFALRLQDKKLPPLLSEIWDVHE
As to the kind of experiment: Ligand-binding test procedure for human LXRβ (3H T0901317 tracer, flash plates). The note with it: read-out: hLXRb binding IC50. As to the method:
LIGAND-BINDING TEST PROCEDURE FOR HUMAN LXRβ.
Buffer: 100 mM KCl, 100 mM TRIS (pH 7.4 at +4° C.), 8.6% glycerol, 0.1 mM PMSF*, 2 mM MTG*, 0.2% CHAPS (* not used in wash buffer)
Receptor source: E. coli extracted from cells expressing biotinylated hLXRβ. Extract was made in a similar buffer as above, but with 50 mM TRIS.
Washed streptavidin and coated flash plates with wash buffer. Diluted receptor extract to give Bmax˜4000 cpm and add to the wells. Wrapped the plates in aluminum foil and stored them at +4° C. overnight.
Made a dilution series in DMSO of the test ligands. Made a 5 nM solution of the radioactive tracer in buffer. Mixed 250 μL diluted tracer with 5 μL of the test ligand from each concentration of the dilution series. Washed the receptor-coated flash plates. Added 200 μL per well of the ligand/radiolabel mixture to the receptor-coated flash plates. Wrapped the plates in aluminum foil and incubate at +4° C. over night.
Aspirated wells, and washed the flashed plates. Sealed the plate. Measured the remaining radioactivity in the plate.

Experiment [4] addresses T2, hLXRa (Homo sapiens, UniProt Q13133).
T2 sequence (Q13133 1-447): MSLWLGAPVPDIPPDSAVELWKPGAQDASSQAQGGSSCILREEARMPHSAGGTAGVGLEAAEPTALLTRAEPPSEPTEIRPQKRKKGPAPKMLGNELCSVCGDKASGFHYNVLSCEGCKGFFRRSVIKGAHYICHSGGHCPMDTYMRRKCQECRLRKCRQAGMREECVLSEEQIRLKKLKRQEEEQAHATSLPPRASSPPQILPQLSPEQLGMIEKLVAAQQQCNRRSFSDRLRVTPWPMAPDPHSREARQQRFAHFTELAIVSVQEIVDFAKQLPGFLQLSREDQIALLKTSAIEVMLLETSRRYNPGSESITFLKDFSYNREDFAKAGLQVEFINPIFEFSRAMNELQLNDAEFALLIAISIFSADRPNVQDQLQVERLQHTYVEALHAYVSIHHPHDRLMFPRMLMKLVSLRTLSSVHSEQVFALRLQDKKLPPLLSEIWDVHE
As to the kind of experiment: hLXRa binding.

A value given as a limit tells only on which side of the number the result lay.

In the case of `CCS(=O)(=O)c1cccc(C(=O)Oc2cccc(-c3c(C(C)C)cnc4c(Cl)cccc34)c2)c1` [Example 1, 3-(8-chloro-3-isopromilquinolin-4-yl)phenyl 3-(ethylsulfonyl)benzoate], the EC50 in experiment [1] amounted to 0.00076 µM; in experiment [2], 0.059 µM. In addition, the half-maximal inhibitory concentration (IC50) was 0.0037 µM in experiment [3] and 0.0162 µM in experiment [4].

In the case of `Cc1ccc(S(C)(=O)=O)cc1C(=O)Oc1cccc(-c2c(C(C)C)cnc3c(Cl)cccc23)c1` [Example 2, 3-(8-chloro-3-isopropyiquinolin-4-yl)phenyl 2-methyl-5-(methylsulfonyl)benzoate], the values for the EC50 in experiment [1] and in experiment [2] were 0.00146 µM and 0.033 µM, respectively. The results for the IC50 in experiment [3] and in experiment [4] were 0.0037 µM and 0.0117 µM, respectively.

Take `CC(C)c1cnc2c(Cl)cccc2c1-c1cccc(OC(=O)c2ccc(S(C)(=O)=O)cc2)c1` [Example 3, 3-(8-chloro-3-isopropylquinolin-4-yl)phenyl 4-(methylsulfonyl)benzoate]: the 50% effective concentration (EC50) in experiment [1] turned out to be 0.00118 µM; in experiment [2], 0.045 µM. Also, the IC50 in experiment [3] was 0.017 µM; in experiment [4] it was 0.057 µM.

For the compound `CC(C)c1cnc2c(Cl)cccc2c1-c1cccc(OC(=O)c2ccccc2S(C)(=O)=O)c1` [Example 4, 3-(8-chloro-3-isopropylquinolin-4-yl)phenyl 2-(methylsulfonyl)benzoate], the IC50 in experiment [3] and in experiment [4] was more than 1 µM in each case.

Regarding `Cc1ccc(S(=O)(=O)N(C)C)cc1C(=O)Oc1cccc(-c2c(C(C)C)cnc3c(Cl)cccc23)c1` [Example 5], the EC50 in experiment [1] came to 0.00162 µM; in experiment [2], 0.05 µM. Moreover, the 50% inhibitory concentration (IC50) in experiment [3] came to 0.025 µM; in experiment [4], 0.053 µM.

`CCS(=O)(=O)c1cccc(C(=O)Oc2cccc(-c3c(C(C)C)cnc4c(C(F)(F)F)cccc34)c2)c1` [Example 6, 3-[3-isopropyl-8-(trifluoromethyl)quinolin-4-yl]phenyl-3-(ethylsulfonyl)benzoate]: the concentration giving a half-maximal response (EC50) in experiment [1] was 0.00148 µM; in experiment [2] it was 0.037 µM. Moreover, the figures for the concentration for half-maximal inhibition (IC50) in experiment [3] and in experiment [4] were 0.004 µM and 0.0163 µM, respectively.

As for `Cc1ccc(S(C)(=O)=O)cc1C(=O)Oc1cccc(-c2c(C(C)C)cnc3c(C(F)(F)F)cccc23)c1` [Example 7, 3-[3-isopropyl-8-(trifluoromethyl)quinolin-4-yl]phenyl-2-methyl-5-(methylsulfonyl)benzoate], the concentration giving a half-maximal response (EC50) in experiment [1] turned out to be 0.00334 µM; in experiment [2], 0.023 µM. Further, the IC50 in experiment [3] was 0.003 µM; in experiment [4] it was 0.0092 µM.

With `CC(C)c1cnc2c(C(F)(F)F)cccc2c1-c1cccc(OC(=O)c2ccc(S(C)(=O)=O)cc2)c1` [Example 8, 3-[3-isopropyl-8-(trifluoromethyl)quinolin-4-yl]phenyl 4-(methylsulfonyl)benzoate], the figures for the half-maximal effective concentration (EC50) in experiment [1] and in experiment [2] were 0.0019 µM and 0.038 µM, respectively. In addition, the IC50 in experiment [3] was 0.0125 µM; in experiment [4], 0.054 µM.

As to `CC(C)c1cnc2c(C(F)(F)F)cccc2c1-c1cccc(OC(=O)c2ccccc2S(C)(=O)=O)c1` [Example 9, 3-[3-isopropyl-8-(trifluoromethyl)quinolin-4-yl]phenyl 2-(methylsulfonyl)benzoate], the IC50 in experiment [3] turned out to be 0.112 µM; in experiment [4], 0.256 µM.

As to `Cc1ccc(S(=O)(=O)N(C)C)cc1C(=O)Oc1cccc(-c2c(C(C)C)cnc3c(C(F)(F)F)cccc23)c1` [Example 10], the EC50 in experiment [1] was 0.00053 µM; in experiment [2], 0.058 µM. Besides, the concentration for half-maximal inhibition (IC50) in experiment [3] turned out to be 0.024 µM; in experiment [4], 0.064 µM.

Take `Cc1cnc2c(C(F)(F)F)cccc2c1-c1cccc(OC(=O)c2cccc(S(C)(=O)=O)c2)c1` [Example 11]: the half-maximal effective concentration (EC50) in experiment [1] worked out at 0.073 µM; in experiment [2], 0.105 µM. For the same compound, the IC50 in experiment [3] was found to be 0.0035 µM; in experiment [4], 0.0133 µM.

`Cc1cnc2c(C(F)(F)F)cccc2c1-c1cccc(C(=O)Oc2cccc(S(C)(=O)=O)c2)c1` [Example 12]: the IC50 in experiment [3] was found to be 0.154 µM; in experiment [4], 0.544 µM.

Regarding `CC(C)c1cnc2c(Cl)cccc2c1-c1cccc(OC(=O)c2cc(S(C)(=O)=O)ccc2Cl)c1` [Example 13, 3-(8-chloro-3-isopropylquinolin-4-yl)phenyl 2-chloro-5-(methylsulfonyl)benzoate], the figures for the IC50 in experiment [3] and in experiment [4] were 0.0034 µM and 0.009 µM, respectively.

Turning to `CC(C)c1cnc2c(C(F)(F)F)cccc2c1-c1cccc(OC(=O)c2cc(S(C)(=O)=O)ccc2Cl)c1` [Example 14, 3-[3-isopropyl-8-(trifluoromethyl)quinolin-4-yl]phenyl-2-chloro-5-(methylsulfonyl)benzoate], the IC50 was 0.0041 µM in experiment [3] and 0.017 µM in experiment [4].

`CC(C)c1cnc2c(C(F)(F)F)cccc2c1-c1cccc(OC(=O)c2cccc(S(C)(=O)=O)c2)c1` [Example 15, 3-[3-isopropyl-8-(trifluoromethyl)quinolin-4-yl]phenyl 3-(methylsulfonyl)benzoate]: the concentration for a half-maximal effect (EC50) stood at 0.0052 µM in experiment [1] and 0.041 µM in experiment [2]. The IC50 in experiment [3] turned out to be 0.0017 µM; in experiment [4] it was 0.0035 µM.

For the compound `CC(C)c1cnc2c(Cl)cccc2c1-c1cccc(OC(=O)c2cccc(S(C)(=O)=O)c2)c1` [Example 16, 3-[8-chloro-3-(1-methylethyl)quinolin-4-yl]phenyl 3-(methylsulfonyl)benzoate], the concentration for half-maximal inhibition (IC50) in experiment [3] is 0.0022 µM; in experiment [4] it was 0.0044 µM.

As for `Cc1cnc2c(Cl)cccc2c1-c1cccc(OC(=O)c2cccc(S(C)(=O)=O)c2)c1` [Example 17, 3-(8-chloro-3-methylquinolin-4-yl)phenyl 3-(methylsulfonyl) benzoate], the results for the concentration for half-maximal inhibition (IC50) in experiment [3] and in experiment [4] were 0.0037 µM and 0.017 µM, respectively.

For `CS(=O)(=O)c1cccc(C(=O)Oc2ccc(Cl)c(-c3ccnc4c(C(F)(F)F)cccc34)c2)c1` [Example 18, 4-chloro-3-[8-(trifluoromethyl)quinolin-4-yl]phenyl-3-(methylsulfonyl)benzoate], the IC50 in experiment [3] worked out at 0.0138 µM; in experiment [4], 0.122 µM.

For the compound `CCc1cnc2c(C(F)(F)F)cccc2c1-c1cccc(OC(=O)c2cccc(S(C)(=O)=O)c2)c1` [Example 19, 3-[3-ethyl-8-(trifluoromethyl)quinolin-4-yl]phenyl 3-(methylsulfonyl)benzoate], the results for the EC50 in experiment [1] and in experiment [2] were 0.0125 µM and 0.036 µM, respectively. Moreover, the IC50 in experiment [3] came out at 0.0022 µM; in experiment [4], 0.004 µM.

Regarding `CCCc1cnc2c(C(F)(F)F)cccc2c1-c1cccc(OC(=O)c2cccc(S(C)(=O)=O)c2)c1` [Example 20, 3-[3-propyl-8-(trifluoromethyl)quinolin-4-yl]phenyl 3-(methylsulfonyl)benzoate], the 50% effective concentration (EC50) was 0.00449 µM in experiment [1] and 0.011 µM in experiment [2]. Further, the concentration for half-maximal inhibition (IC50) in experiment [3] is 0.002 µM; in experiment [4], 0.0029 µM.

For `CS(=O)(=O)c1cccc(C(=O)Oc2cccc(-c3ccnc4c(C(F)(F)F)cccc34)c2)c1` [Example 21, 3-[8-(trifluoromethyl)quinolin-4-yl]phenyl 3-(methylsulfonyl)benzoate], the EC50 in experiment [1] came to 0.384 µM; in experiment [2], 0.634 µM. The half-inhibitory concentration (IC50) was determined as 0.02 µM in experiment [3] and 0.12 µM in experiment [4].

Take `CS(=O)(=O)c1cccc(C(=O)Oc2cccc(-c3c(C#N)cnc4c(C(F)(F)F)cccc34)c2)c1` [Example 24, 3-[3-cyano-8-(trifluoromethyl)quinolin-4-yl]phenyl 3-(methylsulfonyl)benzoate]: the concentration for half-maximal inhibition (IC50) in experiment [3] was found to be 0.033 µM; in experiment [4], 0.09 µM.
